# Laboratory results reported in patent US10995091B2 (Proximagen, LLC, priority 2010, dated 2021).
# Where a name gives a salt, the structure may show the parent alone.
# Target: T1, Human CXCR4 transfected HEK293 cells (Homo sapiens, UniProt P61073)
# T1 construct: expressed in transfected cells; host or cells: HEK293
# Experiment: CXCR4 functional calcium assay (calcium flux FLIPR, antagonism of SDF1 response)
# Assay type: cell-based
# Settings: CXCR4 functional activity, antagonism of SDF1 (EC50 concentration), read-out: CXCR4 fKi
# In short: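 Dose-dependent antagonism of the SDF1 response was read by FLIPR as Fluo-4 calcium signal (2 μM dye) in CXCR4-expressing human HEK293 cells, in HBSS with probenecid, BSA and HEPES at pH 7.4 and 37° C. Test compound was given before an EC50-level SDF1 challenge. Curves were then fitted.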
# T1 sequence (P61073 whole entry): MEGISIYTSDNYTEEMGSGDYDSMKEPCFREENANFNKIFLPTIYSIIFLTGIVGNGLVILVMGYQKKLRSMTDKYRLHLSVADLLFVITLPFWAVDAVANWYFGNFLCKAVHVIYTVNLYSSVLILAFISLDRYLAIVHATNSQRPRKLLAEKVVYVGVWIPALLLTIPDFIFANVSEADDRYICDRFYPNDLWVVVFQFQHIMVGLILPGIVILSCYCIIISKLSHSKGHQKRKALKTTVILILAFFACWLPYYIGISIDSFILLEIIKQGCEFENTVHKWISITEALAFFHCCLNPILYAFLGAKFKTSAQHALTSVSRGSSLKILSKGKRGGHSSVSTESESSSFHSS
row,Structure (SMILES),Ki [µM]
1,"CC(C)N1CCC(N2CCCN(c3cccc(-c4noc(-c5ccncc5)n4)n3)CC2)CC1 [Example 167, 1-[1-(Propan-2-yl)piperidin-4-yl]-4-{6-[5-(pyridine-4-yl)-1,2,4-oxadiazol-3-yl]pyridine-2-yl}-1,4-diazepane tetrahydrochloride]",0.02 to 0.1
2,"O=C(Nc1ccncc1)c1cccc(N2CCCN(Cc3ccc(F)cc3Cl)CC2)n1 [Example 251, 6-{4-[(2-Chloro-4-fluorophenyl)methyl]-1,4-diazepan-1-yl}-N-(pyridin-4-yl)pyridine-2-carboxamide]",0.1 to 0.5
3,"CC(C)N1CCC(N2CCCN(c3cccc(C(=O)Nc4nccs4)n3)CC2)CC1 [Example 31, 6-{4-[1-(Propan-2-yl)piperidin-4-yl]-1,4-diazepan-1-yl}-N-(1,3-thiazol-2-yl)pyridine-2-carboxamide]",< 0.02
4,"CC(C)NCC(O)CN1CCCN(c2cccc(C(=O)NCc3cccnc3)n2)CC1 (stereo not shown) [Example 254, 6-{4-[2-Hydroxy-3-(propan-2-ylamino)propyl]-1,4-diazepan-1-yl}-N-(pyridin-3-ylmethyl)pyridine-2-carboxamide]",0.1 to 0.5
5,"Cc1cc(C(=O)NCC2CC2)nc(N2CCCN(C3CCN(Cc4ccccc4Cl)CC3)CC2)c1 [Example 268, 6-(4-{1-[(2-Chlorophenyl)methyl]piperidin-4-yl}-1,4-diazepan-1-yl)-N-(cyclopropylmethyl)-4-methylpyridine-2-carboxamide]",0.1 to 0.5
6,"NC(=O)c1cccc(N2CCCN(C3CCN(Cc4ccccc4Cl)CC3)CC2)n1 [Example 136, 6-(4-{1-[(2-Chlorophenyl)methyl]piperidin-4-yl}-1,4-diazpan-1-yl)pyridine-2-carboxamide]",0.1 to 0.5
7,"O=C(NCc1cocn1)c1cccc(N2CCCN(C3CCN(Cc4ccccc4Cl)CC3)CC2)n1 [Example 58, 6-(4-{1-[(2-Chlorophenyl)methyl]piperidin-4-yl}-1,4-diazepan-1-yl)-N-(1,3-oxazol-4-ylmethyl)pyridine-2-carboxamide]",0.1 to 0.5
8,"CC(C)(C)C1CCC(N2CCCN(c3cccc(C(=O)NCc4cccnc4)n3)CC2)CC1 (stereo not shown) [Example 256, 6-[4-(4-tert-Butylcyclohexyl)-1,4-diazepan-1-yl]-N-(pyridin-3-ylmethyl)pyridine-2-carboxamide]",0.02 to 0.1
9,"[2H]C1([2H])CCN(C2CCN([C@H](C)CC)CC2)CCN1c1cccc(C(=O)Nc2ccncc2)n1 [Example 176, 6-(4-{1-[(2R)-Butan-2-yl]piperidin-4-yl}-7,7-dihydrogenio-1,4-diazepan-1-yl)-N-(pyridine-4-yl)pyridine-2-carboxamide]",< 0.02
10,"[2H]C1([2H])CCN(c2cccc(C(=O)Nc3ccncc3)n2)CC(C)N1C1CCN(Cc2ccccc2Cl)CC1 (stereo not shown) [Example 206, 6-(4-{1-[(2-Chlorophenyl)methyl]piperidin-4-yl}-5,5-dihydrogenio-3-methyl-1,4-diazepan-1-yl)-N-(pyridin-4-yl)pyridine-2-carboxamide]",< 0.02
11,"CC(C)N1CCO[C@H](CN2CCCN(c3cccc(C(=O)Nc4ccncc4)n3)CC2)C1 [Example 244, 6-(4-{[(2R)-4-(Propan-2-yl)morpholin-2-yl]methyl}-1,4-diazepan-1-yl)-N-(pyridin-4-yl)pyridine-2-carboxamide]",0.02 to 0.1
12,"O=C(NCC1CC1)c1cccc(N2CCC(NCc3ccccc3Cl)CC2)n1 [Example 248, 6-(4-{[(2-Chlorophenyl)methyl]amino}piperidin-1-yl)-N-(cyclopropylmethyl)pyridine-2-carboxamide]",0.5 to 1
13,"O=C(NCc1ncco1)c1cccc(N2CCCN(C3CCN(Cc4ccccc4Cl)CC3)CC2)n1 [Example 57, 6-(4-{1-[(2-Chlorophenyl)methyl]piperidin-4-yl}-1,4-diazepan-1-yl)-N-(1,3-oxazol-2-ylmethyl)pyridine-2-carboxamide]",0.02 to 0.1
14,"Cc1ccc(N2CCCN(C3CCN(Cc4ccccc4Cl)CC3)CC2)nc1 [Example 263, 1-{1-[(2-Chlorophenyl)methyl]piperidin-4-yl}-4-(5-methylpyridin-2-yl)-1,4-diazepane]",0.1 to 0.5
15,"CCc1cnc(-c2cccc(NCCNC3CCN([C@H](C)CC)CC3)n2)[nH]1 [Example 235, 1-[(2R)-Butan-2-yl]-N-(2-{[6-(4-ethyl-1H-imidazol-2-yl)pyridin-2-yl]amino}ethyl)piperidin-4-amine]",0.1 to 0.5
16,"Cc1ccc(N2CCCN(C3CCN(C(C)C)CC3)CC2)nc1C(=O)NCC1CC1 [Example 125, N-(Cyclopropylmethyl)-3-methyl-6-{4-[1-(propan-2-yl)piperidin-4-yl]-1,4-diazepan-1-yl}pyridine-2-carboxamide]",0.1 to 0.5
17,"C[C@H](c1ccccc1)N1CCC(N2CCCN(c3cccc(C(=O)NCC4CC4)n3)CC2)CC1 [Example 74, N-(Cyclopropylmethyl)-6-(4-{1-[(1R)-1-phenylethyl]piperidin-4-yl}-1,4-diazepan-1-yl)pyridine-2-carboxamide]",0.1 to 0.5
18,"O=C(Nc1ccncc1)c1cccc(N2CC[C@@H](NC[C@@H]3CCN(C4CCCC4)C3)C2)n1 [Example 226, 6-[(3R)-3-({[(3S)-1-Cyclopentylpyrrolidin-3-yl]methyl}amino)pyrrolidin-1-yl]-N-(pyridin-4-yl)pyridine-2-carboxamide]",< 0.02
19,"CC(C)N1CCC(N2CCCN(c3cccc(C(=O)NCc4cocn4)n3)CC2)CC1 [Example 41, N-(1,3-Oxazol-4-ylmethyl)-6-{4-[1-(propan-2-yl)piperidin-4-yl]-1,4-diazepan-1-yl}pyridine-2-carboxamide]",0.02 to 0.1
20,"CC(C)N1CCC(N2CCCN(c3cccc(C(=O)NCCc4ccccn4)n3)CC2)CC1 [Example 46, 6-{4-[1-(Propan-2-yl)piperidin-4-yl]-1,4-diazepan-1-yl}-N-[2-(pyridin-2-yl)ethyl]pyridine-2-carboxamide]",0.02 to 0.1

# More lines, now with the values ahead:
row,Ki [µM],Structure (SMILES)
1,0.02 to 0.1,"Cc1nc(-c2cccc(N3CCCN(C4CCN(C(C)C)CC4)CC3)n2)[nH]c1C [Example 118, 1-[6-(4,5-Dimethyl-1H-imidazol-2-yl)pyridine-2-yl]-4-[1-(propan-2-yl)piperidin-4-yl]-1,4-diazepane]"
2,0.1 to 0.5,"CCCc1nc(-c2cccc(N3CCCN(C4CCN([C@H](C)CC)CC4)CC3)n2)no1 [Example 154, 1-{1-[(2R)-Butan-2-yl]piperidin-4-yl}-4-[6-(5-propyl-1,2,4-oxadiazol-3-yl)pyridin-2-yl]-1,4-diazepane]"
3,0.1 to 0.5,"CC(C)N1CCC(N2CCCN(c3cccc(-c4noc(C5CC5)n4)n3)CC2)CC1 [Example 161, 1-[6-(5-Cyclopropyl-1,2,4-oxadiazol-3-yl)pyridine-2-yl]-4-[1-(propan-2-yl)piperidin-4-yl]-1,4-diazepane]"
4,0.5 to 1,"CC(C)N1CCC(N2CCCN(c3cccc(-c4ncc(C(F)(F)F)[nH]4)n3)CC2)CC1 [Example 112, 1-[1-(Propan-2-yl)piperidin-4-yl]-4-{6-[4-(trifluoromethyl)-1H-imidazol-2-yl]pyridine-2-yl}-1,4-diazepane]"
5,0.5 to 1,"c1cc(NCCNC2CCN(C3CCCC3)C2)nc(-c2ncc(C3CC3)[nH]2)c1 (stereo not shown) [Example 233, N-{2-[(1-Cyclopentylpyrrolidin-3-yl)amino]ethyl}-6-(5-cyclopropyl-1H-imidazol-2-yl)pyridin-2-amine]"
6,< 0.02,"O=C(Nc1ccncc1)c1cccc(N2CCCN(C3CCN(C4CCCC4)CC3)CC2)n1 [Example 83, 6-[4-(1-Cyclopentylpiperidin-4-yl)-1,4-diazepan-1-yl]-N-(pyridine-4-yl)pyridine-2-carboxamide]"
7,0.1 to 0.5,"CC(C)N1CCC(N2CCCN(c3cccc(-c4ncc(-c5ccccc5)[nH]4)n3)CC2)CC1 [Example 114, 1-[6-(4-Phenyl-1H-imidazol-2-yl)pyridine-2-yl]-4-[1-(propan-2-yl)piperidin-4-yl]-1,4-diazepane]"
8,0.1 to 0.5,"Cc1nc(-c2cccc(N3CCCN(C4CCN(C5CCCC5)CC4F)CC3)n2)[nH]c1C1CC1 (stereo not shown) [Example 214, 1-(1-Cyclopentyl-3-fluoropiperidin-4-yl)-4-[6-(4-cyclopropyl-5-methyl-1H-imidazol-2-yl)pyridin-2-yl]-1,4-diazepane]"
9,0.02 to 0.1,"CC(C)c1cnc(-c2cccc(N3CCCN(C4CCN(C(C)C)CC4)CC3)n2)[nH]1 [Example 110, 1-{6-[4-(Propan-2-yl)-1H-imidazol-2-yl]pyridine-2-yl}-4-[1-(propan-2-yl)piperidin-4-yl]-1,4-diazepane]"
10,0.5 to 1,"CC(CF)N1CCC(N2CCCN(c3cccc(C(=O)NCC4CC4)n3)CC2)CC1 (stereo not shown) [Example 67, N-(Cyclopropylmethyl)-6-{4-[1-(1-fluoropropan-2-yl)piperidin-4-yl]-1,4-diazepan-1-yl}pyridine-2-carboxamide]"
11,0.1 to 0.5,"CC(C(F)F)N1CCC(N2CCCN(c3cccc(C(=O)NCC4CC4)n3)CC2)CC1 (stereo not shown) [Example 68, N-(Cyclopropylmethyl)-6-{4-[1-(1,1-difluoropropan-2-yl)piperidin-4-yl]-1,4-diazepan-1-yl}pyridine-2-carboxamide]"
12,0.02 to 0.1,"CC(C)N1CCC(N2CCCN(c3cccc(-c4nc5ccc(F)cc5[nH]4)n3)CC2)CC1 [Example 147, 6-Fluoro-2-(6-{4-[1-(propan-2-yl)piperidin-4-yl]-1,4-diazepan-1-yl}pyridine-2-yl)-1H-1,3-benzodiazole]"
13,0.1 to 0.5,"CC(C)N1CCC(N2CCCN(c3cccc(-c4cc5ccc(C#N)cc5[nH]4)n3)CC2)CC1 [Example 103, 2-(6-{4-[1-(Propan-2-yl)piperidin-4-yl]-1,4-diazepan-1-yl}pyridine-2-yl)-1H-indole-6-carbonitrile]"
14,< 0.02,"CC(C)N1CCC(N2CCCN(c3cccc(C(=O)Nc4ccncc4)n3)CC2)C(F)C1 (stereo not shown) [Example 210, 6-{4-[3-Fluoro-1-(propan-2-yl)piperidin-4-yl]-1,4-diazepan-1-yl}-N-(pyridin-4-yl)pyridine-2-carboxamide]"
